Assay results taken from patent publication US20130130238A1, “Fluorimetric Process for Evaluating the Influence of A Condition on A Biological Sample and Applications Thereof” (NOVALEADS, priority 2008, published 2013).

Columns and labels:
Assay type in all cases: cell-based
HeLa cells [1] = assay: Kinetic profile of SYTO13 or SYTO15 fluorescence under continuous illumination, HeLa cells treated with apoptogenic agent; settings: 1 μM, 7 hours
Experimental: HeLa cells were treated for 7 hours with (∘, Δ) or without ([…], ▴) 1 μM staurosporine. The cells were then labelled with a 10 μM solution of SYTO13 (Δ, ▴) or SYTO15 (∘, […]) then subjected to continuous illumination for 300 seconds. The intensity of fluorescence is then measured every 5 seconds. Each intensity value is then expressed as a percentage of the first fluorescence value measured. (IF: intensity of fluorescence; T: illumination time).
HeLa cells (Sigma-Aldrich) are plated into a 96-well format transparent-bottomed black microplate at 20000 cells per well the day before the experiment. On the day of the test the cells are or are not treated with 1 μM of staurosporine for 7 hours. The cells are then labelled for 20 minutes with 50 μl of a 10 μM solution of SYTO13 (Invitrogen) or SYTO15 (Invitrogen) prepared in buffer A.
The labelled cells are placed under a fluorescence reader of the Varioskan type (Thermo Electron Corporation) equipped with a Xenon Flash lamp. The samples labelled with SYTO13 and SYTO15 are then subjected for 300 seconds to continuous illumination at 488 nm and 516 nm respectively. The fluorescence intensities emitted by these biosensors are then measured every 5 seconds.

HeLa cells [2] = assay: Kinetic profile of SYTO62 fluorescence under continuous illumination, HeLa cells treated with apoptotic agent; settings: 7 hours, 10 μM SYTO62, illumination 40 seconds at 488 nm
Experimental: HeLa cells were treated for 7 hours with (Δ, □, ⋄) or without (∘) 0.1 μM (Δ), 0.5 μM (□) and 1 μM (⋄) staurosporine. The cells were then labelled with a 10 μM solution of SYTO62 then subjected to continuous illumination for 40 seconds. The intensity of fluorescence is then measured every second. Each intensity value is then expressed as a percentage of the first fluorescence value measured. (IF: intensity of fluorescence; T: illumination time). HeLa cells (Sigma-Aldrich) are plated into a 96-well format transparent-bottomed black microplate at 20000 cells per well the day before the experiment. On the day of the test the cells are or are not treated with 0.1, 0.5 and 1 μM of staurosporine (Sigma-Aldrich) for 7 hours. The cells are then labelled for 20 minutes with 50 μl of a 10 μM solution of SYTO62 (Invitrogen) prepared in a buffer containing 25 mM Hepes, 140 mM NaCl, 1 mM EDTA and 0.1% bovine serum albumin (BSA), pH 7.4 (buffer A). The samples are placed under a fluorescence microscope (Leica DMIRB) at ×100 magnification then subjected to continuous illumination at 488 nm with a mercury lamp (HBO […]/2) for 40 seconds. The intensity of fluorescence emitted by the biosensor is then measured every second.

HepG2 cells = assay: Kinetic profile of SYTO13 fluorescence under continuous illumination, HepG2 cells treated with okadaic acid; settings: 0.01, 0.031, 0.1, 0.31 and 1 μM, 24 hours, 2 μM final SYTO13, illumination 20 seconds at 488 nm
Experimental: The cells were then labelled with a solution of SYTO13 of 2 μM final concentration then subjected to continuous illumination for 20 seconds. The intensity of fluorescence is then measured every 0.4 seconds. Each intensity value is then expressed as a percentage of the first fluorescence value measured. (IF: intensity of fluorescence; T: illumination time).
HepG2 cells (ATCC) are plated into a 96-well format transparent-bottomed black microplate at 20000 cells per well two days before the experiment. The day before the test the cells are or are not treated with 75 μl of 0.01, 0.031, 0.1, 0.31 and 1 μM solutions of okadaic acid (Sigma-Aldrich). The cells are incubated for 24 hours.
On the day of the test, the cells are labelled for 30 minutes at 37° C. with 25 μl of an 8 μM solution of SYTO13 (Invitrogen) (i.e. 2 μM final) prepared in MEM culture medium (Invitrogen).
The samples are placed under a fluorescence microscope at ×100 magnification then subjected to continuous illumination at 488 nm with a mercury lamp for 20 seconds. The intensity of fluorescence emitted by the biosensor is then measured every 0.4 seconds.

HeLa cells [3] = assay: Kinetic profile of SYTO62 fluorescence under continuous illumination, HeLa cells treated with anticancer agent; settings: 0.1 μM and 1 μM, 24 hours, 10 μM SYTO62, illumination 50 seconds at 488 nm
Experimental: The intensity of fluorescence is then measured every second. Each intensity value is then expressed as a percentage of the first fluorescence value measured. (IF: intensity of fluorescence; T: illumination time). HeLa cells (Sigma-Aldrich) are plated into a 96-well format transparent-bottomed black microplate at 20000 cells per well the day before the experiment. […] The intensity of fluorescence emitted by the biosensor is then measured every second.

## CN[C@@H]1C[C@H]2O[C@@](C)([C@@H]1OC)n1c3ccccc3c3c4c(c5c6ccccc6n2c5c31)C(=O)NC4 [staurosporine]
HeLa cells [1]; 10 μM SYTO13, illumination 300 seconds at 488 nm
  increase in the fluorescence measured under continuous illumination: does not induce an increase in the fluorescence measured
HeLa cells [1]; 10 μM SYTO15, illumination 300 seconds at 516 nm
  increase in the fluorescence measured under continuous illumination: does not induce an increase in the fluorescence measured
HeLa cells [2]; 0.1 μM
  increase in the intensity of fluorescence measured under continuous illumination: a weaker increase in fluorescence than in the untreated condition
HeLa cells [2]; 0.5 μM
  increase in the intensity of fluorescence measured under continuous illumination: an increase in fluorescence is no longer measured
HeLa cells [2]; 1 μM
  increase in the intensity of fluorescence measured under continuous illumination: an increase in fluorescence is no longer measured

## C=C1[C@@H](O)[C@@H]2O[C@]3(CC[C@H](/C=C/[C@@H](C)[C@@H]4CC(C)=C[C@@]5(O[C@H](C[C@@](C)(O)C(=O)O)CC[C@H]5O)O4)O3)CC[C@H]2O[C@@H]1[C@@H](O)C[C@H](C)[C@H]1O[C@@]2(CCCCO2)CC[C@H]1C [okadaic acid]
HepG2 cells
  variation in fluorescence measured under illumination: dose-dependent decrease in the variation in fluorescence

## CC(=O)O[C@H]1C(=O)[C@@]2(C)[C@H]([C@H](OC(=O)c3ccccc3)[C@]3(O)C[C@H](OC(=O)[C@H](O)[C@@H](NC(=O)c4ccccc4)c4ccccc4)C(C)=C1C3(C)C)[C@]1(OC(C)=O)CO[C@@H]1C[C@@H]2O [Taxol, Paclitaxel]
HeLa cells [3]
  variation in fluorescence measured under illumination: dose-dependent decrease in the variation in fluorescence
